Results from patent US20180110754A1, “CENICRIVIROC FOR THE TREATMENT OF FIBROSIS” (Tobira Therapeutics, Inc., priority 2015, published 2018).

Key:
[1] = known short half-life; cited from earlier work
mouse monocytes = assay: CCL2-induced chemotaxis ex vivo on mouse monocytes; type: cell-based
Protocol: Monocyte/macrophage recruitment was assessed in vivo in a mouse model of thioglycollate-induced peritonitis. CCL2-induced chemotaxis was evaluated ex vivo on mouse monocytes. […] Study assessments included body and liver/kidney weight, liver function test, liver/kidney morphology and collagen deposition, fibrogenic gene and protein expression, and pharmacokinetic analyses.

[2] = system: thioacetamide (TAA)-induced hepatic fibrosis; assay: Rat model of thioacetamide-induced liver fibrosis and cirrhosis; type: in vivo, Sprague-Dawley rats; details: for Reduction of fibrosis (collagen morphometry): weeks 0-8
Protocol: Fibrosis was induced in male Sprague-Dawley rats by intraperitoneal administration of TAA 150 mg/kg 3 times/week for 8 weeks. […] Biochemical, gene expression and histologic evaluations of the liver were conducted.

[3] = system: thioglycollate-induced peritonitis (monocyte/macrophage and leukocyte recruitment); assay: Mouse thioglycollate-induced peritonitis model: peritoneal lavage cell counts, body weight; type: in vivo
Protocol: Summary: The mouse thioglycollate induced peritonitis model is a commonly used preclinical model to assess the recruitment of […] cells and to assess the activation of macrophages.
Dexamethasone was used as a positive control in this experiment as it is a corticosteroid known to reduce inflammation in a variety of animal models. Murine inflammation models indicate that the effective dose range for dexamethasone, when administered orally, is 0.3 to 3 mg/kg QD. On this basis, an intermediate dose of 1 mg/kg was chosen for this particular study.
The lavage was repeated with a second injection of 2.5 mL via the initial puncture site and the samples were pooled for each animal.
The lavage fluid was placed on wet ice pending processing for total and differential cell counts using the Advia analyzer. Following the lavage collection, a blood sample (0.7 mL) was collected from each mouse by intracardiac puncture or from the vena cava (collection time was recorded). 0.5 mL of blood was placed in an EDTA tube, transferred to clinical pathology and analyzed for differential cell counts using the Advia analyzer. 0.2 mL of blood was placed in a K2EDTA tube and processed to plasma. The plasma was collected by centrifugation (3000 rpm for 10 minutes at 4° C.) and placed on dry ice. […] After blood collection, the animals were then exsanguinated by sectioning of the abdominal aorta.
Statistical Analysis: One-way ANOVA with post-hoc Dunnett's statistical analysis was performed on differential cell counts obtained from lavage and blood samples. The analysis was performed in comparison to Group 2.

CCR5 = CCR5 (Homo sapiens, UniProt P51681); assay: RANTES-induced CCR5 internalization / CCR5 receptor occupancy in PBMCs (flow cytometry); type: cell-based
Protocol: The capacity of each drug to inhibit CCR5 or CCR2 internalization was evaluated. Cell-surface expression of CCR5 and CCR2 was assessed by flow cytometry, and fluorescence values were converted into molecules of equivalent soluble fluorescence (MESF).

Sequence of CCR5 (P51681 whole entry): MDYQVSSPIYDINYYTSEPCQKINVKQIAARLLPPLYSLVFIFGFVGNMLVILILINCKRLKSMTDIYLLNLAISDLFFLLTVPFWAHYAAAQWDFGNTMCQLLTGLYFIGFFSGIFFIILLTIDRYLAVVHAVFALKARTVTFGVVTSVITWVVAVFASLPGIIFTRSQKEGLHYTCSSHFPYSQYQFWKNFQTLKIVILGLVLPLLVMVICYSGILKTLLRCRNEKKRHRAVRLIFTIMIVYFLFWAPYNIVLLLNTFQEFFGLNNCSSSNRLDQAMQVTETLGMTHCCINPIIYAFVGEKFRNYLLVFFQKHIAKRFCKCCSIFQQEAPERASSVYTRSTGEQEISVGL

In the case of `CCCCOCCOc1ccc(-c2ccc3c(c2)/C=C(/C(=O)Nc2ccc([S@@+]([O-])Cc4cncn4CCC)cc2)CCCN3CC(C)C)cc1` [CVC, (S)-8-[4-(2-Butoxyethoxy)phenyl]-1-isobutyl-N-(4-{[(1-propyl-1H-imidazol-5-yl)methyl]sulfinyl}phenyl)-1,2,3,4-tetrahydro-1-benzazocine-5-carboxamide], the Half-life in mice [1] is given as about 2 h, the “Monocyte migration ex vivo (CCL2-induced chemotaxis)” value (mouse monocytes) is given as “reduced” and the “Reduction of collagen type 1 protein levels” value ([2]; Group 1a: 30 mg/kg/day) is given as 30%. The “Reduction of α-SMA” value ([2]; Group 1a: 30 mg/kg/day) was 17%, the “Reduction of fibrosis (collagen morphometry)” value ([2]; Group 1a: 30 mg/kg/day concurrently with TAA) was 49% and the “Reduction of collagen type 1 protein levels” value ([2]; Group 1b: 100 mg/kg/day) was 12%. The “Reduction of α-SMA” value ([2]; Group 1b: 100 mg/kg/day) was 22%, the “Reduction of fibrosis (collagen morphometry)” value ([2]; Group 1b: 100 mg/kg/day concurrently with TAA) was 38% and the Reduction in collagen ([2]; Group 2a: 30 mg/kg/day, weeks 4-8 (emerging fibrosis)) was 36%. The “Effect on fibrogenic gene expression or fibrosis” value ([2]; Group 3: weeks 8-12, cirrhosis present) was “no significant effect”, the “Decrease in monocytes in peritoneal lavage vs thioglycollate control (Group 2)” value (“Decrease in monocytes” below) ([3]; Group 3 (CVC BID)) was 5.7% and the “Decrease in total leukocytes in peritoneal lavage vs thioglycollate control (Group 2)” value (“Decrease in total leukocytes” for short) ([3]; Group 3 (CVC BID)) was 0.8%. For the same compound, the “Decrease in monocytes” value ([3]; Group 4 (CVC BID)) was 45.2%, the “Decrease in total leukocytes” value ([3]; Group 4 (CVC BID)) was 22.2% and the “Decrease in monocytes” value ([3]; Group 5 (CVC BID)) was 76.5%. For the same compound, the “Decrease in total leukocytes” value ([3]; Group 5 (CVC BID)) was 57.6%, the “Decrease in monocytes” value ([3]; Group 6 (CVC QD)) was 26.0% and the “Decrease in total leukocytes” value ([3]; Group 6 (CVC QD)) was 14.2%. For the same compound, the “Body weights, Days 1 to 6” value ([3]; mouse, in vivo) was “no notable changes in body weights”, the receptor occupancy at […] (CCR5; CCR5, […] nM for CD4+ and 2.3 nM for CD8+ T-cells, ex vivo in humans) was at least 90% and the “CCR5 receptor occupancy at saturation” value (CCR5; CD4+ T cells) was about 91%. The “Effective concentration at which saturation of CCR5 was reached” value (CCR5; CD4+ T cells) was 3.1 nM, the “CCR5 receptor occupancy at saturation” value (CCR5; CD8+ T cells) was about 90% and the “Effective concentration at which saturation of CCR5 was reached” value (CCR5; CD8+ T cells) was 2.3 nM. For the same compound, the “Cell-surface expression of CCR5” value (CCR5; in the absence of RANTES) was “increased cell-surface expression of CCR5”.
